Source: PubChem BioAssay (NCI)
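A five-concentration, 48-hour dose response in 96-well plates underlies each endpoint, interpolated linearly between surrounding concentrations. TGI denotes the concentration required for complete inhibition of growth.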

Columns and labels:
Assay in all cases: growth of human tumour cells (NCI), 48 h
SK-MEL-28 melanoma = system: SK-MEL-28 melanoma
SK-MEL-2 melanoma = system: SK-MEL-2 melanoma
NCI-H460 lung = system: NCI-H460 lung
SW-620 colon = system: SW-620 colon
SN12C renal = system: SN12C renal
HL-60(TB) leukemia = system: HL-60(TB) leukemia
SF-295 CNS = system: SF-295 CNS
NCI/ADR-RES ovarian = system: NCI/ADR-RES ovarian
HOP-62 NSCLC = system: HOP-62 NSCLC
786-0 renal = system: 786-0 renal
SNB-19 CNS = system: SNB-19 CNS
CAKI-1 renal = system: CAKI-1 renal
HS 578T breast = system: HS 578T breast
NCI-H23 lung = system: NCI-H23 lung
K-562 leukemia = system: K-562 leukemia
SF-268 CNS = system: SF-268 CNS
OVCAR-5 ovarian = system: OVCAR-5 ovarian
HCT-116 colon = system: HCT-116 colon
M14 melanoma = system: M14 melanoma
MALME-3M melanoma = system: MALME-3M melanoma
KM12 colon = system: KM12 colon
MOLT-4 leukemia = system: MOLT-4 leukemia
SK-OV-3 ovarian = system: SK-OV-3 ovarian
MDA-N = system: MDA-N
UO-31 renal = system: UO-31 renal
EKVX NSCLC = system: EKVX NSCLC
RPMI-8226 leukemia = system: RPMI-8226 leukemia
U251 CNS = system: U251 CNS
MDA-MB-231 breast = system: MDA-MB-231 breast
A498 renal = system: A498 renal
UACC-62 melanoma = system: UACC-62 melanoma
CCRF-CEM leukemia = system: CCRF-CEM leukemia
A549 NSCLC = system: A549 NSCLC
DU-145 prostate = system: DU-145 prostate
TK-10 renal = system: TK-10 renal
OVCAR-4 ovarian = system: OVCAR-4 ovarian
IGROV1 ovarian = system: IGROV1 ovarian
OVCAR-3 ovarian = system: OVCAR-3 ovarian
ACHN renal = system: ACHN renal
SR leukemia = system: SR leukemia
HOP-92 NSCLC = system: HOP-92 NSCLC
HCT-15 colon = system: HCT-15 colon
NCI-H522 lung = system: NCI-H522 lung
HT29 colon = system: HT29 colon
PC-3 prostate = system: PC-3 prostate
UACC-257 melanoma = system: UACC-257 melanoma
MCF7 breast = system: MCF7 breast
MDA-MB-435 = system: MDA-MB-435
BT-549 breast = system: BT-549 breast
OVCAR-8 ovarian = system: OVCAR-8 ovarian
LOX IMVI melanoma = system: LOX IMVI melanoma
HCC-2998 colon = system: HCC-2998 colon
SK-MEL-5 melanoma = system: SK-MEL-5 melanoma
RXF 393 renal = system: RXF 393 renal
SNB-75 CNS = system: SNB-75 CNS
SF-539 CNS = system: SF-539 CNS
COLO 205 colon = system: COLO 205 colon

SMILES: COc1nc(SC)nc2c1C(O)n1c(nc3ccccc31)S2 (centres undefined)
- TGI (SK-MEL-28 melanoma): > 100 µM
- TGI (SK-MEL-2 melanoma): > 100 µM
- TGI (NCI-H460 lung): > 100 µM
- TGI (SW-620 colon): 47.7 µM
- TGI (SN12C renal): > 100 µM
- TGI (HL-60(TB) leukemia): 60.5 µM
- TGI (SF-295 CNS): 59.6 µM
- TGI (NCI/ADR-RES ovarian): 94.9 µM
- TGI (HOP-62 NSCLC): 37.4 µM
- TGI (786-0 renal): 24.6 µM
- TGI (SNB-19 CNS): > 100 µM
- TGI (CAKI-1 renal): > 100 µM
- TGI (HS 578T breast): 50.7 µM
- TGI (NCI-H23 lung): 95.4 µM
- TGI (K-562 leukemia): > 100 µM
- TGI (SF-268 CNS): > 100 µM
- TGI (OVCAR-5 ovarian): > 100 µM
- TGI (HCT-116 colon): 30.4 µM
- TGI (M14 melanoma): > 100 µM
- TGI (MALME-3M melanoma): > 100 µM
- TGI (KM12 colon): > 100 µM
- TGI (MOLT-4 leukemia): > 100 µM
- TGI (SK-OV-3 ovarian): 67.2 µM
- TGI (MDA-N): > 100 µM
- TGI (UO-31 renal): 16.8 µM
- TGI (EKVX NSCLC): > 100 µM
- TGI (RPMI-8226 leukemia): > 100 µM
- TGI (U251 CNS): 96.8 µM
- TGI (MDA-MB-231 breast): > 100 µM
- TGI (A498 renal): 39.4 µM
- TGI (UACC-62 melanoma): 44.7 µM
- TGI (CCRF-CEM leukemia): 22.3 µM
- TGI (A549 NSCLC): > 100 µM
- TGI (DU-145 prostate): > 100 µM
- TGI (TK-10 renal): 97.7 µM
- TGI (OVCAR-4 ovarian): 44.4 µM
- TGI (IGROV1 ovarian): > 100 µM
- TGI (OVCAR-3 ovarian): 85.7 µM
- TGI (ACHN renal): 39.9 µM
- TGI (SR leukemia): > 100 µM
- TGI (HOP-92 NSCLC): 61.9 µM
- TGI (HCT-15 colon): > 100 µM
- TGI (NCI-H522 lung): 69.1 µM
- TGI (HT29 colon): > 100 µM
- TGI (PC-3 prostate): > 100 µM
- TGI (UACC-257 melanoma): > 100 µM
- TGI (MCF7 breast): 91.2 µM
- TGI (MDA-MB-435): > 100 µM
- TGI (BT-549 breast): > 100 µM
- TGI (OVCAR-8 ovarian): 80.9 µM
- TGI (LOX IMVI melanoma): > 100 µM
- TGI (HCC-2998 colon): > 100 µM

SMILES: C=CCCC(CCC=C)(C(=O)O)C(=O)O
- TGI (SK-MEL-28 melanoma): > 100 µM
- TGI (SK-MEL-2 melanoma): > 100 µM
- TGI (NCI-H460 lung): > 100 µM
- TGI (SW-620 colon): > 100 µM
- TGI (SN12C renal): > 100 µM
- TGI (HL-60(TB) leukemia): > 100 µM
- TGI (SK-MEL-5 melanoma): > 100 µM
- TGI (SF-295 CNS): > 100 µM
- TGI (NCI/ADR-RES ovarian): > 100 µM
- TGI (HOP-62 NSCLC): > 100 µM
- TGI (786-0 renal): > 100 µM
- TGI (SNB-19 CNS): > 100 µM
- TGI (RXF 393 renal): > 100 µM
- TGI (HS 578T breast): > 100 µM
- TGI (NCI-H23 lung): > 100 µM
- TGI (K-562 leukemia): > 100 µM
- TGI (SF-268 CNS): > 100 µM
- TGI (OVCAR-5 ovarian): > 100 µM
- TGI (HCT-116 colon): > 100 µM
- TGI (M14 melanoma): > 100 µM
- TGI (MALME-3M melanoma): > 100 µM
- TGI (KM12 colon): > 100 µM
- TGI (MOLT-4 leukemia): > 100 µM
- TGI (MDA-N): > 100 µM
- TGI (UO-31 renal): > 100 µM
- TGI (EKVX NSCLC): > 100 µM
- TGI (RPMI-8226 leukemia): > 100 µM
- TGI (U251 CNS): > 100 µM
- TGI (SNB-75 CNS): > 100 µM
- TGI (MDA-MB-231 breast): > 100 µM
- TGI (UACC-62 melanoma): > 100 µM
- TGI (CCRF-CEM leukemia): > 100 µM
- TGI (A549 NSCLC): > 100 µM
- TGI (DU-145 prostate): > 100 µM
- TGI (TK-10 renal): > 100 µM
- TGI (IGROV1 ovarian): > 100 µM
- TGI (OVCAR-3 ovarian): > 100 µM
- TGI (ACHN renal): > 100 µM
- TGI (SR leukemia): > 100 µM
- TGI (HCT-15 colon): > 100 µM
- TGI (NCI-H522 lung): > 100 µM
- TGI (HT29 colon): > 100 µM
- TGI (PC-3 prostate): > 100 µM
- TGI (UACC-257 melanoma): > 100 µM
- TGI (SF-539 CNS): > 100 µM
- TGI (MCF7 breast): > 100 µM
- TGI (MDA-MB-435): > 100 µM
- TGI (COLO 205 colon): > 100 µM
- TGI (BT-549 breast): > 100 µM
- TGI (OVCAR-8 ovarian): > 100 µM
- TGI (LOX IMVI melanoma): > 100 µM
- TGI (HCC-2998 colon): > 100 µM
